These results are taken from patent US7531547B2, “Diaminopyrimidines as P2X3 and P2X2/3 modulators” (Roche Palo Alto LLC, priority 2005, dated 2009).

One data set addresses T1, rat P2X3 receptor (Rattus norvegicus, UniProt P49654).
T1 construct: expressed in transfected cells; host or cells: CHO-K1
T1 sequence (P49654 1-397): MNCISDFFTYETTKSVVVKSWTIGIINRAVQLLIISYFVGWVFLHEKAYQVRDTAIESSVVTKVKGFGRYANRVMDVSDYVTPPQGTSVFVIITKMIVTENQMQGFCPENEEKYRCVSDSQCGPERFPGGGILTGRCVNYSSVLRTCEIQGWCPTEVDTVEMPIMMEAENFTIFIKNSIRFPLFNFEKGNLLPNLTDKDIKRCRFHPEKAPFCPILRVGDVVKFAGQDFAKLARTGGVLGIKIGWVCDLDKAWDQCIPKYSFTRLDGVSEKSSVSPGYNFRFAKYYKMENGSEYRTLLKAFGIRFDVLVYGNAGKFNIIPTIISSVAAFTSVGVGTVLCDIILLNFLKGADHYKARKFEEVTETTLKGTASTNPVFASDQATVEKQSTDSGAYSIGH
In words: P2X3 FLIPR (Fluorometric Imaging Plate Reader) assay, CHO-K1 cells. The format is cell-based. The conditions noted are these: CHO-K1 cells transfected with rat P2X3; agonist α,β-meATP 1 μM; Fluo-3 calcium fluorescence; read-out: pIC50 for the P2X3 receptor (converted). The method, then: (§1) CHO-K1 cells were transfected with cloned rat P2X3 or human P2X2/3 receptor subunits and passaged in flasks. 18-24 hours before the FLIPR experiment, cells were released from their flasks, centrifuged, and resuspended in nutrient medium at 2.5×10^5 cells/ml. The cells were aliquoted into black-walled 96-well plates at a density of 50,000 cells/well and incubated overnight in 5% CO2 at 37° C. On the day of the experiment, cells were washed in FLIPR buffer (calcium- and magnesium-free Hank's balanced salt solution, 10 mM HEPES, 2 mM CaCl2, 2.5 mM probenecid; FB). Each well received 100 μl FB and 100 μl of the fluorescent dye Fluo-3 AM [2 μM final conc.]. […]
(§2) Test compounds (dissolved in DMSO at 10 mM and serially diluted with FB) or vehicle were added to each well (25 μl of a 4× solution) and allowed to equilibrate for 20 minutes at room temperature. The plates were then placed in the FLIPR and a baseline fluorescence measurement (excitation at 488 nm and emission at 510-570 nm) was obtained for 10 seconds before a 100 μl/well agonist or vehicle addition. […] Fluorescence was measured for an additional 2 minutes at 1 second intervals after agonist addition. A final addition of ionomycin (5 μM, final concentration) was made to each well of the FLIPR test plate to establish cell viability and maximum fluorescence of dye-bound cytosolic calcium. […]

Another data set addresses T2, human P2X2/3 receptor (Homo sapiens, UniProt P56373+Q9UBL9).
T2 construct: expressed in transfected cells; host or cells: CHO-K1
T2 sequence (Q9UBL9 1-471): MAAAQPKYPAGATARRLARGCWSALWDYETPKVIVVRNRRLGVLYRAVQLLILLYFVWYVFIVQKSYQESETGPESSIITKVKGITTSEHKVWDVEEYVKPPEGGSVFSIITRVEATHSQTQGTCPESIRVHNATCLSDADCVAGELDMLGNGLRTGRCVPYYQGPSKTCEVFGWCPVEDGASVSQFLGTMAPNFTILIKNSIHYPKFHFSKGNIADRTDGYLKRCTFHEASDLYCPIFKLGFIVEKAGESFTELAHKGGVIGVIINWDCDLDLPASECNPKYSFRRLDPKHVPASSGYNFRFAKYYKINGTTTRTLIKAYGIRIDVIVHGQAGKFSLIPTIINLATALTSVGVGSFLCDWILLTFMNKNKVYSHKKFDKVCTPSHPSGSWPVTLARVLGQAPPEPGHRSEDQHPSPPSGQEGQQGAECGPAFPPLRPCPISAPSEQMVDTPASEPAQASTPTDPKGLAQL
T2 sequence (P56373 1-397): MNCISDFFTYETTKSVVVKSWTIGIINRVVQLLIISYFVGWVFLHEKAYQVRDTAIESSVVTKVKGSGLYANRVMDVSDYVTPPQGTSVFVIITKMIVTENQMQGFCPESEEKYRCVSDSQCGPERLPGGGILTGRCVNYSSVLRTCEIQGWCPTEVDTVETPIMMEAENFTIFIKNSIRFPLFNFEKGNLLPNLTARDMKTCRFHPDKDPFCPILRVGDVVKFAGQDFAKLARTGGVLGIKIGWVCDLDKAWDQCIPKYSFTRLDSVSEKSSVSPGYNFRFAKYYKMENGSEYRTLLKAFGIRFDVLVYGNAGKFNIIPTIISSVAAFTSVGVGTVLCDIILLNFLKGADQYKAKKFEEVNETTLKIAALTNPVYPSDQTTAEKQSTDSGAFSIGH
The data set is described as follows: P2X2/3 FLIPR (Fluorometric Imaging Plate Reader) assay, CHO-K1 cells. The conditions noted are these: CHO-K1 cells transfected with human P2X2/3; agonist α,β-meATP 5 μM; Fluo-3 calcium fluorescence; read-out: pIC50 for the P2X2/3 receptor (converted). The format is cell-based. The method, then:
as §1, §2

Each structure is given as a SMILES string.

Consider `C#Cc1cc(Oc2cnc(N)nc2N)c(C(C)C)cc1O` [4-(2,4-Diamino-pyrimidin-5-yloxy)-2-ethynyl-5-isopropyl-phenol], for which the figures for the IC50 on rat P2X3 receptor and at human P2X2/3 receptor were ~5.75 nM and ~10.2 nM, respectively.

`COc1cc(C(C)C)c(Oc2cnc(N)nc2N)cc1C#CC1CC1` [Compound 19, 5-(5-Cyclopropylethynyl-2-isopropyl-4-methoxy-phenoxy)-pyrimidine-2,4-diamine] displayed a melting point of 225.5 to 226.8 °C.

In turn, `C#Cc1cc(Oc2cnc(N)nc2N)c(C#C)cc1OC` [Compound 25, 5-(2,5-Diethynyl-4-methoxy-phenoxy)-pyrimidine-2,4-diamine] came in with a melting point of 163.2 to 164.1 °C.

`C#Cc1ccc(I)c(Oc2cnc(N)nc2N)c1` [Compound 27, 5-(5-Ethynyl-2-iodo-phenoxy)-pyrimidine-2,4-diamine] registered a melting point of 156 to 159 °C.
